From patent US7608601B2, “4′-Substituted nucleoside derivatives as inhibitors of HCV RNA replication” (Roche Palo Alto LLC, priority 2001, dated 2009)

How the values were obtained:
[1] = system: Renilla Luciferase HCV replicon cells (2209-23); experiment: WST-1 cytotoxicity assay; type: cell-based, human; conditions: 2209-23 cells, three days
Protocol: For the assay procedure, Renilla Luciferase HCV replicon cells (2209-23) that cultured in Dulbecco's MEM (GibcoBRL cat no. 31966-021) with 5% fetal calf serum (FCS, GibcoBRL cat. no. 10106-169) were plated onto a 96-well plate at 5000 cells per well, and incubated overnight. Twenty-four hours later, different dilutions of chemical compounds in the growth medium were added to the cells, which were then further incubated at 37° C. for three days. The assay was carried out in duplicate plates, one in opaque white and one in transparent, in order to measure the activity and cytotoxicity of a chemical compound in parallel ensuring the activity seen is not due to reduction on cell proliferation.
For the cytotoxicity assay, WST-1 reagent from Roche Diagnostic (cat no. 1644807) was used. Ten microlitre of WST-1 reagent was added to each well including wells that contain media alone as blanks. Cells were then incubated for 1 to 1.5 hours at 37° C., and the OD value was measured by a 96-well plate reader at 450 nm (reference filter at 650 nm). Again CC50, the concentration of the drug required for reducing cell proliferation by 50% in relation to the untreated cell control value, can be calculated from the plot of percentage reduction of the WST-1 value vs. drug concentration.

[2] = system: HCV replicon RNA; experiment: Renilla luciferase HCV replicon assay; type: cell-based, Hepatitis C Virus; conditions: Huh7 2209-23 cells, three days

| Compound | CC50(μM) WST-1, given as % at a concentration ([1]; at 100 μM) | IC50 ([2]; Hepatitis C virus, Huh-7, 72 h, concentration reducing replicon level by 50% vs untreated control) | CC50(μM) WST-1, given as % at a concentration ([1]; at 20 μM) | IC50 (μM), given as % at a concentration ([2]; at 20 μM) |
| --- | --- | --- | --- | --- |
| [N-]=[N+]=N[C@]1(CO)O[C@@H](n2ccc(N)nc2=O)[C@H](O)[C@@H]1O [compound 1, 4′-C-Azidocytidine] | 0% (100 μM) | 1200 nM | – | – |
| C#C[C@]1(CO)O[C@@H](n2ccc(N)nc2=O)[C@H](O)[C@@H]1O.Cl [compound 3, 4′-C-Ethynylcytidine hydrochloride (1:1)] | – | – | 0% (20 μM) | 3% (20 μM) |
